Legend:
Assay type in all cases: cell-based
[1] = tested on: SW620 Yap KO cells; test: Viability assay in SW620 Yap KO (Yap independent) cells, CyQUANT; conditions: Homo sapiens, SW-620, SW620 YAP and TAZ knocked out (YAP independent), 96 hour incubation, n.d. (x) = not detectable below threshold x
Protocol: (§1) Viability Assay in NCI-H226 (Yap-Dependent) and SW620 Yap KO (Yap Independent) Cells
(§2) The ability of YAP-TEAD inhibitors to inhibit tumor cell growth was evaluated using two different cell lines: NCI-H226, which is a YAP dependent cell line, and SW620 cells, where YAP and TAZ were knocked out using CRISPR to generate a YAP independent cell line.
(§3) For the assay, cells were treated in duplicates with the test compounds in a 10-point dose, 1:3 dilution steps, with the top concentration starting at 30 μM (final concentration in assay). After a 96 hour incubation at 37° C., 95% rH, and 5% CO2, a cell-permeant DNA-binding dye that stains only healthy cells (CyQUANT®, Promega) was added to the cells, allowing the quantification of cell viability.
(§4) Cell Media: The NCI-H226 cells were cultured in the following media: RPMI 1640, +10% FBS, +1× GlutaMAX, +10 mM HEPES, +0.5% Pen/Strep. The SW620-KO cells were cultured in the following media: DMEM/F-12, +10% FBS, +1× GlutaMAX, +10 mM HEPES, +0.5% Pen/Strep.
(§5) Reagents: The reagents used are listed below:
(§6) Cell culture: The cells were examined using an inverted microscope to check for health, cell density, etc. To dissociate adherent cells, the monolayer of cells was washed once with pre-warmed PBS. After removing the PBS, 3 ml pre-warmed Accutase was added to a F75 flask, dispersed evenly and the flask was allowed to sit in incubator for ˜4-5 minutes.
(§7) When a single cell suspension was obtained, 7 ml of prewarmed growth media was added and resuspended with the cells. The cell suspension was transferred to a sterile 15 ml conical centrifuge tube, and spun for 5 min at 300×g, RT. The supernatant was discarded and the pellet was resuspended in 10 ml of pre-warmed growth media.
(§8) The total cell count was determined, and 20 μl of the desired cell number was added to each well of a 384 well plate using a Multidrop Combi. The plates were then incubated for 24 hours at 37° C., 95% rH, and 5% CO2.
(§9) Compound treatment: 24 hours after seeding, the cells were treated with compounds.
(§10) A 1:333 dilution of compounds, diluted in DMSO, was made to get a final concentration of 0.3% DMSO per well. To transfer the compounds to the assay plate, 120 nl was shot from Labcyte low dead volume plates to the cell plates containing 20 μl media/well with the ECHO 555 liquid handling system. After treatment, the cells were fed with 20 μl fresh pre-warmed assay media using a Multidrop combi.
(§11) The assay plates were then incubated for 96 h at 37° C., 95% rH, and 5% CO2.
(§12) 96 h after treatment 30 μl of CyQuant® reagent was added to the assay plates using a Multidrop combi in the dark. The plates were then incubated for 1 hour at 37° C., 95% rH and 5% CO2. Thereafter, the assay plates were removed from the incubator and allowed to equilibrate to RT for 30 min in the dark without lid. Finally, they were measured using an EnVision microplate reader with a FITC bottom read program.

[2] = tested on: NCI-H226 cells; test: Viability assay in NCI-H226 (Yap-dependent) cells, CyQUANT; conditions: Homo sapiens, NCI-H226 YAP dependent cell line, 96 hour incubation, group symbols
Protocol: as §1, §2, §3, §4, §5, §6, §7, §8, §9, §10, §11, §12

[3] = tested on: YAP-TEAD interaction; test: SK-HEP-1 reporter assay (8x TEAD responsive elements driving NanoLuc luciferase); conditions: Homo sapiens, SK-HEP1, SK-HEP-1 cells, 24 hour incubation
In short: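 SK-HEP-1 cells carrying a stably integrated 8× TEAD-element NanoLuc reporter, seeded 24 h before dosing, were treated in duplicate with a 10-point dose series (top 30 μM final, 0.3% DMSO) for 24 h at 37°C, 5% CO2. Luciferase activity read by NanoGlo luminescence; IC50 derived from it.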

[4] = number, or n.d. (x) = not detectable below threshold x

Compound | IC50 [1] | IC50 [2] | IC50 [3, 4] | IC50 ([3]; group symbols)
Cn1cc2c3cc(C(=O)NCCN4CCOCC4)sc3n(-c3ccc(C(F)(F)F)cc3)c2n1 [Compound 65, 4-methyl-N-[2-(morpholin-4-yl)ethyl]-7-[4-(trifluoromethyl)phenyl]-9-thia-4,5,7-triazatricyclo[6.3.0.0^2,6]undeca-1(8),2,5,10-tetraene-10-carboxamide] | > 3 µM | 0.1 to 1 µM | > 0.3 µM | 
Cn1cc2c3cc(C(=O)NCc4ccccn4)sc3n(-c3ccc(C(F)(F)F)cc3)c2n1 [Compound 66, 4-methyl-N-[(pyridin-2-yl)methyl]-7-[4-(trifluoromethyl)phenyl]-9-thia-4,5,7-triazatricyclo[6.3.0.0^2,6]undeca-1(8),2,5,10-tetraene-10-carboxamide] | > 3 µM | 0.001 to 0.1 µM | > 9.5 µM | 
Cn1cc2c3cc(C(=O)N4CC[C@@H](O)C4)sc3n(-c3ccc(C(F)(F)F)cc3)c2n1 [Compound 67, (3R)-1-{4-methyl-7-[4-(trifluoromethyl)phenyl]-9-thia-4,5,7-triazatricyclo[6.3.0.0^2,6]undeca-1(8),2,5,10-tetraene-10-carbonyl}pyrrolidin-3-ol] | > 3 µM | 0.1 to 1 µM | > 9.5 µM | 
C[C@@H](CO)NC(=O)c1cc2c3cn(C)nc3n(-c3ccc(C(F)(F)F)cc3)c2s1 [Compound 68, N-[(2S)-1-hydroxypropan-2-yl]-4-methyl-7-[4-(trifluoromethyl)phenyl]-9-thia-4,5,7-triazatricyclo[6.3.0.0^2,6]undeca-1(8),2,5,10-tetraene-10-carboxamide] | > 3 µM | 0.001 to 0.1 µM | > 0.95 µM | 
Cn1cc2c3cc(C(=O)N4CC[C@H](O)C4)sc3n(-c3ccc(C(F)(F)F)cc3)c2n1 [Compound 69, (3S)-1-{4-methyl-7-[4-(trifluoromethyl)phenyl]-9-thia-4,5,7-triazatricyclo[6.3.0.0^2,6]undeca-1(8),2,5,10-tetraene-10-carbonyl}pyrrolidin-3-ol] | > 3.2 µM | 0.001 to 0.1 µM | > 30 µM | 
Cn1cc2c3cc(-c4noc(=O)[nH]4)sc3n(-c3ccc(C(F)(F)F)cc3)c2n1 [Compound 80, 3-{4-methyl-7-[4-(trifluoromethyl)phenyl]-9-thia-4,5,7-triazatricyclo[6.3.0.0^2,6]undeca-1(8),2,5,10-tetraen-10-yl}-4,5-dihydro-1,2,4-oxadiazol-5-one] | > 30 µM | 0.1 to 1 µM | > 30 µM | 
Cn1cc2c3cc(C(=O)NC4(CO)CC4)sc3n(-c3ccc(C(F)(F)F)cc3)c2n1 [Compound 91, N-[1-(hydroxymethyl)cyclopropyl]-4-methyl-7-[4-(trifluoromethyl)phenyl]-9-thia-4,5,7-triazatricyclo[6.3.0.0^2,6]undeca-1(8),2,5,10-tetraene-10-carboxamide] | > 30 µM | 0.001 to 0.1 µM | > 30 µM | 
CC[C@@H](CO)NC(=O)c1cc2c3cn(C)nc3n(-c3ccc(C(F)(F)F)cc3)c2s1 [Compound 92, N-[(2S)-1-hydroxybutan-2-yl]-4-methyl-7-[4-(trifluoromethyl)phenyl]-9-thia-4,5,7-triazatricyclo[6.3.0.0^2,6]undeca-1(8),2,5,10-tetraene-10-carboxamide] | > 3 µM | 0.1 to 1 µM | > 30 µM | 
CC[C@H](CO)NC(=O)c1cc2c3cn(C)nc3n(-c3ccc(C(F)(F)F)cc3)c2s1 [Compound 93, N-[(2R)-1-hydroxybutan-2-yl]-4-methyl-7-[4-(trifluoromethyl)phenyl]-9-thia-4,5,7-triazatricyclo[6.3.0.0^2,6]undeca-1(8),2,5,10-tetraene-10-carboxamide] | > 3 µM | 0.001 to 0.1 µM |  | 0.01 to 0.1 µM
Cn1nc2c3cc(C(=O)O)sc3n(-c3ccc(C(F)(F)F)cc3)c2n1 [Compound 95, 4-methyl-7-[4-(trifluoromethyl)phenyl]-9-thia-3,4,5,7-tetraazatricyclo[6.3.0.0^2,6]undeca-1(8),2,5,10-tetraene-10-carboxylic acid] | > 30 µM | 0.001 to 0.1 µM |  | 0.001 to 0.01 µM
Cn1ccc(C(CO)NC(=O)c2cc3c4cn(C)nc4n(-c4ccc(C(F)(F)F)cc4)c3s2)n1 (stereo not drawn) [Compound 96, N-[2-hydroxy-1-(1-methyl-1H-pyrazol-3-yl)ethyl]-4-methyl-7-[4-(trifluoromethyl)phenyl]-9-thia-4,5,7-triazatricyclo[6.3.0.0^2,6]undeca-1(8),2,5,10-tetraene-10-carboxamide] | > 30 µM | 0.001 to 0.1 µM |  | 0.01 to 0.1 µM
Cn1cc2c3cc(C(=O)NCC(O)CO)sc3n(-c3ccc(C(F)(F)F)cc3)c2n1 (stereo not drawn) [Compound 97, N-(2,3-dihydroxypropyl)-4-methyl-7-[4-(trifluoromethyl)phenyl]-9-thia-4,5,7-triazatricyclo[6.3.0.0^2,6]undeca-1(8),2,5,10-tetraene-10-carboxamide] | > 30 µM | 0.1 to 1 µM |  | 0.001 to 0.01 µM
Cn1cc2c3cc(C(=O)O)sc3n(-c3ccc(C(F)F)cc3)c2n1 [Compound 99, 7-[4-(difluoromethyl)phenyl]-4-methyl-9-thia-4,5,7-triazatricyclo[6.3.0.0^2,6]undeca-1(8),2,5,10-tetraene-10-carboxylic acid] | > 30 µM | 0.1 to 1 µM |  | 0.1 to 10 µM
CNC(=O)c1cc2c3cn(C)nc3n(-c3ccc(C(F)F)cc3)c2s1 [Compound 100, 7-[4-(difluoromethyl)phenyl]-N,4-dimethyl-9-thia-4,5,7-triazatricyclo[6.3.0.0^2,6]undeca-1(8),2,5,10-tetraene-10-carboxamide] | > 30 µM | 0.001 to 0.1 µM |  | 0.01 to 0.1 µM
CNC(=O)c1cc2c3nn(C)nc3n(-c3ccc(C(F)(F)F)cc3)c2s1 [Compound 102, N,4-dimethyl-7-[4-(trifluoromethyl)phenyl]-9-thia-3,4,5,7-tetraazatricyclo[6.3.0.0^2,6]undeca-1(8),2,5,10-tetraene-10-carboxamide] | > 30 µM | 0.001 to 0.1 µM |  | 0.01 to 0.1 µM
Cn1cc2c3cc(C(=O)N4CC[C@H](O)C4)sc3n(-c3ccc(C(F)F)cc3)c2n1 [Compound 105, (3S)-1-{7-[4-(difluoromethyl)phenyl]-4-methyl-9-thia-4,5,7-triazatricyclo[6.3.0.0^2,6]undeca-1(8),2,5,10-tetraene-10-carbonyl}pyrrolidin-3-ol] | > 30 µM | 0.1 to 1 µM |  | 0.01 to 0.1 µM
Cn1cc2c3cc(C(=O)O)sc3n(-c3ccc(C(F)F)cn3)c2n1 [Compound 117, 7-[5-(difluoromethyl)pyridin-2-yl]-4-methyl-9-thia-4,5,7-triazatricyclo[6.3.0.0^2,6]undeca-1(8),2,5,10-tetraene-10-carboxylic acid] | > 30 µM | 1 to 10 µM |  | 0.1 to 10 µM
Cn1cc2c3cc(C(=O)O)sc3n(-c3ccc(OC(F)(F)F)cn3)c2n1 [Compound 118, 4-methyl-7-[5-(trifluoromethoxy)pyridin-2-yl]-9-thia-4,5,7-triazatricyclo[6.3.0.0^2,6]undeca-1(8),2,5,10-tetraene-10-carboxylic acid] | > 30 µM | 0.1 to 1 µM |  | 0.01 to 0.1 µM

Source: patent publication US20260159525A1, “TRICYCLIC HETEROCYCLES” (Merck Patent GmbH, priority 2021, published 2026)
